Measured values reported in ChEMBL document CHEMBL3421625, “Discovery and optimization of novel antagonists to the human neurokinin-3 receptor for the treatment of sex-hormone disorders (Part I)” (J Med Chem, 2015).
≈ marks a conversion by molar mass, not a printed value.

Legend:
[1] = Fraction unbound in rat plasma at 5 uM after 4 hrs by equilibrium dialysis method; type: ADME, cell-free
Cytochrome P450 2C19 = Cytochrome P450 2C19 (Homo sapiens, UniProt P33261); assay: Inhibition of CYP2C19 (unknown origin) by luciferase reporter assay in presence of NADPH regeneration system
Cytochrome P450 2C19, sequence (P33261 whole entry): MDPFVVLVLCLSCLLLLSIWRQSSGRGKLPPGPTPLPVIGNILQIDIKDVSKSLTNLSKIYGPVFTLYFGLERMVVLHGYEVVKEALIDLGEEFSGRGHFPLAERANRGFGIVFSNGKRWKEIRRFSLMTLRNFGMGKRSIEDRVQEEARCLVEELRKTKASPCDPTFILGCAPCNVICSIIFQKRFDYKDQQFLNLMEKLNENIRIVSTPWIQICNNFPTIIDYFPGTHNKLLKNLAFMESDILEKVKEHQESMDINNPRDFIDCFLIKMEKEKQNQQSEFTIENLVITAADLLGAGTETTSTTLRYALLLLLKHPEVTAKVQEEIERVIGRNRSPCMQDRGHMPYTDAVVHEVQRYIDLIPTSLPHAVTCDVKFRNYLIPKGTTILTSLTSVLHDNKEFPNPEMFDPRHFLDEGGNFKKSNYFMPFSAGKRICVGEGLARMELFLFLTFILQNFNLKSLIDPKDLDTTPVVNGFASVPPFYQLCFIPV

[2] = Lipophilicity, log D of the compound at pH 7.4; type: physicochemical; conditions: buffer, read-out: logD
[3] = Apparent permeability across apical to basolateral side in human Caco2 cells in presence of 0.1% bovine serum albumin; conditions: Caco-2
Rattus norvegicus [4] = assay: Unbound AUC in Sprague-Dawley rat at 1 mg/kg, iv by LC-MS/MS analysis; type: ADME, organism-based; parameters: dose 1 mg/kg, route intravenous; conditions: in vivo
[5] = target: Kappa-type opioid receptor (Homo sapiens) (UniProt P41145); assay: Inhibition of KOR (unknown origin) at 10 uM relative to control
Kappa-type opioid receptor (Homo sapiens), sequence (P41145 whole entry): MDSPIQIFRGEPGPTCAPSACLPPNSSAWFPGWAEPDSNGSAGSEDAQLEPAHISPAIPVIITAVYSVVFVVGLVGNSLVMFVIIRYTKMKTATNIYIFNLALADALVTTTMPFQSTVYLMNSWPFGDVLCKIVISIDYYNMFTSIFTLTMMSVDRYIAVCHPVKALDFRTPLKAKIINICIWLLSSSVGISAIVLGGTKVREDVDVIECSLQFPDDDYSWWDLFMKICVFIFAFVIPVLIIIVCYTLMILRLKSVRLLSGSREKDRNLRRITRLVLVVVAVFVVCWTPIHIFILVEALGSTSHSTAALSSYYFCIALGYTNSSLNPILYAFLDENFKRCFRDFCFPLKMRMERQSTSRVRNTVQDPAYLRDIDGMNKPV

in vivo [6] = conditions: Sprague-Dawley, rat, po, 3 mg/kg
Rattus norvegicus [7] = assay: Unbound AUC in Sprague-Dawley rat at 3 mg/kg, po by LC-MS/MS analysis; type: ADME, organism-based; parameters: dose 3 mg/kg, route oral; conditions: in vivo
Cytochrome P450 2C9 = Cytochrome P450 2C9 (Homo sapiens, UniProt P11712); assay: Inhibition of CYP2C9 (unknown origin) by luciferase reporter assay in presence of NADPH regeneration system; type: ADME
Cytochrome P450 2C9, sequence (P11712 whole entry): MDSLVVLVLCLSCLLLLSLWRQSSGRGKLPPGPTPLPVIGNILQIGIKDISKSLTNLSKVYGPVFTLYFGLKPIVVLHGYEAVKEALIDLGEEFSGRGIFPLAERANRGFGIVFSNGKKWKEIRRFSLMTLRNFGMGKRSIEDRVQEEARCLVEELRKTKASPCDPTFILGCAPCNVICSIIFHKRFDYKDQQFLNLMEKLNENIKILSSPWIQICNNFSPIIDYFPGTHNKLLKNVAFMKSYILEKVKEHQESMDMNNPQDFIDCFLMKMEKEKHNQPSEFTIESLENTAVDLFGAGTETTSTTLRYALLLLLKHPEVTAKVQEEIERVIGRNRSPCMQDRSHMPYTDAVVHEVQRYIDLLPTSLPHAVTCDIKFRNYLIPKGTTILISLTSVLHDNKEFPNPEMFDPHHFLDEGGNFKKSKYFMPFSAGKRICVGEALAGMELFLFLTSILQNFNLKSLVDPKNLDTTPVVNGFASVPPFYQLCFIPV

Neuromedin-K receptor [8] = target: T1, Neuromedin-K receptor (Rattus norvegicus, UniProt P16177)
T1 sequence (P16177 whole entry): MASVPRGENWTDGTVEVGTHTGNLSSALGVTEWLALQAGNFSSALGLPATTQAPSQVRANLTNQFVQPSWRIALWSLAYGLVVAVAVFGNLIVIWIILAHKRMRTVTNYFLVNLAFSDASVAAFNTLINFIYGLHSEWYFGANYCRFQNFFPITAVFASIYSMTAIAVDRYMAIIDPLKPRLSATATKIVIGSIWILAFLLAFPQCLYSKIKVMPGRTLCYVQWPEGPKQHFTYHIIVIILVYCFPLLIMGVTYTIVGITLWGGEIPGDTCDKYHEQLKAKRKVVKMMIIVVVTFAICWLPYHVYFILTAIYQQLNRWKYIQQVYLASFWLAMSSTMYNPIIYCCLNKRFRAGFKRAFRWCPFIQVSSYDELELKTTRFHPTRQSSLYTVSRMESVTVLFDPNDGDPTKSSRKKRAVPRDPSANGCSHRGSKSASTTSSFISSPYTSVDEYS
Description: Displacement of [3H]-SB222200 from rat NK3R after 90 mins by scintillation counting analysis

[9] = Ratio of unbound drug level in brain to plasma in Sprague-Dawley rat at 1 mg/kg, iv measured at 10 mins; conditions: brain and plasma
Cytochrome P450 2D6 = Cytochrome P450 2D6 (Homo sapiens, UniProt P10635); assay: Inhibition of CYP2D6 (unknown origin) by luciferase reporter assay in presence of NADPH regeneration system; type: ADME
Cytochrome P450 2D6, sequence (P10635 whole entry): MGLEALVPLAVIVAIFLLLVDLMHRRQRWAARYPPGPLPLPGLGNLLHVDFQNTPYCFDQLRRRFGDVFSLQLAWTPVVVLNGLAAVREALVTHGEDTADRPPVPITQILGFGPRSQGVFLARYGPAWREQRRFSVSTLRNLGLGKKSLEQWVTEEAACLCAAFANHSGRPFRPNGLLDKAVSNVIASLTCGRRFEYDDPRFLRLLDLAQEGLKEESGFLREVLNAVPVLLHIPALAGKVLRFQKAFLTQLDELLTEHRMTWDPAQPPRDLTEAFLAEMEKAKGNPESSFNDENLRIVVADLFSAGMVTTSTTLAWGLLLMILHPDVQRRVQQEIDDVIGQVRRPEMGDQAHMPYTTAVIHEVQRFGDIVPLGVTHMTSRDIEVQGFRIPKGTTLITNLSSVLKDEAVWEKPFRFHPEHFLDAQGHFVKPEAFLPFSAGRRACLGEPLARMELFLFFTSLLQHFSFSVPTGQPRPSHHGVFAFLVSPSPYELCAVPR

[10] = Ratio of unbound drug level in brain to plasma in Sprague-Dawley rat at 1 mg/kg, iv measured at 60 mins; conditions: brain and plasma
in vivo [11] = conditions: Sprague-Dawley, rat, po, 3 mg/kg; remark: listed apart in the source
[12] = Total systemic clearance in Sprague-Dawley rat at 1 mg/kg, iv by LC-MS/MS analysis; type: ADME, organism-based; parameters: dose 1 mg/kg, route intravenous; conditions: in vivo
NK-3 receptor = target: T2, NK-3 receptor (Macaca mulatta, UniProt Q2WGM0)
T2 sequence (Q2WGM0 whole entry): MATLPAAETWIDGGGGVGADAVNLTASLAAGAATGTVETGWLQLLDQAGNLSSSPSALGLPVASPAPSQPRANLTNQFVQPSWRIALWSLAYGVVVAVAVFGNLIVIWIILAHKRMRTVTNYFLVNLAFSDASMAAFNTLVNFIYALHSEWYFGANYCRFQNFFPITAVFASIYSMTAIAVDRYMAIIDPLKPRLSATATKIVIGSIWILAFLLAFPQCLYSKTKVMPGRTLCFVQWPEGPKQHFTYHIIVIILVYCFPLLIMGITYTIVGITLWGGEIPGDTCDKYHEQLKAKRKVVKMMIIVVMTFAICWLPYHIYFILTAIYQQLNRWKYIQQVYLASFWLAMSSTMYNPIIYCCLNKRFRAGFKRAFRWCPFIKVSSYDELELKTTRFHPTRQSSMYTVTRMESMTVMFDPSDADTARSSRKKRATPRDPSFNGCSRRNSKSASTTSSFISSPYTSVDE
Description: Displacement of [3H]-SB222200 from monkey NK3R after 90 mins by scintillation counting analysis

in vivo [13] = conditions: Sprague-Dawley, rat, iv, 1 mg/kg
Description: Volume of distribution at steady state in Sprague-Dawley rat at 1 mg/kg, iv by LC-MS/MS analysis

[14] = Apparent permeability across basolateral to apical side in human Caco2 cells in presence of 0.1% bovine serum albumin; conditions: Caco-2
[15] = Solubility of the compound in PBS buffer at pH 7.4 by shake-flask method; type: physicochemical
in vivo [16] = conditions: Sprague-Dawley, rat, iv, 1 mg/kg; remark: listed apart in the source
Substance-K receptor [17] = target: T3, Substance-K receptor (Homo sapiens, UniProt P21452); assay: Displacement of [125I]-neurokinin A from human NK2R after 90 mins by scintillation counting analysis
T3 sequence (P21452 whole entry): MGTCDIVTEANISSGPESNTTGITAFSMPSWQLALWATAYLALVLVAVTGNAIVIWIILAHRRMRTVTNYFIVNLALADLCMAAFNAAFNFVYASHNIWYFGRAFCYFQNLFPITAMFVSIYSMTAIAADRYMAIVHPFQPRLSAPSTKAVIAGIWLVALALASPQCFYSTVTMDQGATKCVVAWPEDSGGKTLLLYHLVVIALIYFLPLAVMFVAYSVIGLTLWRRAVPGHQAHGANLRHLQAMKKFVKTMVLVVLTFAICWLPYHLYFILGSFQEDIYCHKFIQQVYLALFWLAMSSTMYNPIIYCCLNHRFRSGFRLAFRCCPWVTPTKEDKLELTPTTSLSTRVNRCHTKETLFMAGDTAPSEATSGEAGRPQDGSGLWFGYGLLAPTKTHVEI

[18] = Fraction unbound in rat brain at 5 uM after 4 hrs by equilibrium dialysis method; type: ADME, tissue-based
Substance-P receptor = Substance-P receptor (Homo sapiens, UniProt P25103)
Substance-P receptor, sequence (P25103 whole entry): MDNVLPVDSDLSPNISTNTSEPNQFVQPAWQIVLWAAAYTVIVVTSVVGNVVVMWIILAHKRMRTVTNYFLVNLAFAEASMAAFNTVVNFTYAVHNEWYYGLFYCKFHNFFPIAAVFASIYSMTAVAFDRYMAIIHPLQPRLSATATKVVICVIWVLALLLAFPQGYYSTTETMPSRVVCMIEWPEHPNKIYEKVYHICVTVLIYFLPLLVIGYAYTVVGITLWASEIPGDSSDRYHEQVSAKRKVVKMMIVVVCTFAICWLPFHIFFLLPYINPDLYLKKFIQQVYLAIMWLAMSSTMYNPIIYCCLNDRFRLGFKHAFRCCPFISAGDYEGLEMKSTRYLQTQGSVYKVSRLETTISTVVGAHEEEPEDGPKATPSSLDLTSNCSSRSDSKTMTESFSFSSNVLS
Description: Displacement of [3H]-Substance P from human NK1R after 90 mins by scintillation counting analysis

Neuromedin-K receptor [19] = target: T4, Neuromedin-K receptor (Homo sapiens, UniProt P29371)
T4 sequence (P29371 whole entry): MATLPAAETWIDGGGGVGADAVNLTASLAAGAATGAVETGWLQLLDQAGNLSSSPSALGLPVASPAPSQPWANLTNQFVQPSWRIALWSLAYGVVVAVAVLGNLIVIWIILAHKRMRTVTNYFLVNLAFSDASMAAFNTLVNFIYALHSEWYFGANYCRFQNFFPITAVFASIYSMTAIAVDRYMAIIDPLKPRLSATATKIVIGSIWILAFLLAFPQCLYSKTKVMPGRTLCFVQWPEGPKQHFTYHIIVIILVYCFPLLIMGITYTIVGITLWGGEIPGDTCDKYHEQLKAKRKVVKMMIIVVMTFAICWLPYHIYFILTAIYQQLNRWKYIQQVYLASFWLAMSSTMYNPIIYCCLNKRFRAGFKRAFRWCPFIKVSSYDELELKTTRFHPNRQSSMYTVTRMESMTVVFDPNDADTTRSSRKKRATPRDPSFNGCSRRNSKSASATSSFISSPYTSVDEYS

Cytochrome P450 1A2 = target: T5, Cytochrome P450 1A2 (Homo sapiens, UniProt P05177); assay: Inhibition of CYP1A2 (unknown origin) by luciferase reporter assay in presence of NADPH regeneration system; type: ADME
T5 sequence (P05177 whole entry): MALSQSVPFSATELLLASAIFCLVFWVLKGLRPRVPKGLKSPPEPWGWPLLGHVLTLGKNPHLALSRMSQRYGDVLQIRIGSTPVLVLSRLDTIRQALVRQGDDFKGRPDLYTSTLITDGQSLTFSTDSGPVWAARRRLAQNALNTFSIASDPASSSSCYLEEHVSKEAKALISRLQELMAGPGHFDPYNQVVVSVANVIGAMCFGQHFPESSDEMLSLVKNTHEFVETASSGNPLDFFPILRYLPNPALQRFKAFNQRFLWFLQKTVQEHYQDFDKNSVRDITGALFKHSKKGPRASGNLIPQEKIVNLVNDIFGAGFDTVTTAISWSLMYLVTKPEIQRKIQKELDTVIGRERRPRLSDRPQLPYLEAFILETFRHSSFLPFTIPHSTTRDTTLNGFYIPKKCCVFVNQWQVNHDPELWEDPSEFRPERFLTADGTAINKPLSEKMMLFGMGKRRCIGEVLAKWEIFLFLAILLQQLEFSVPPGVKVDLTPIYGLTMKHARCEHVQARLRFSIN

Neuromedin-K receptor [20] = target: T4, Neuromedin-K receptor; assay: biochemical
Description: Displacement of [3H]-SB222200 from recombinant human NK3R expressed in CHO cell membranes after 90 mins by scintillation counting analysis

Rattus norvegicus [21] = assay: Unbound Cmax in Sprague-Dawley rat at 3 mg/kg, po by LC-MS/MS analysis; type: ADME, organism-based; parameters: dose 3 mg/kg, route oral; conditions: in vivo
Cytochrome P450 3A4 = Cytochrome P450 3A4 (Homo sapiens, UniProt P08684); assay: Inhibition of CYP3A4 (unknown origin) by luciferase reporter assay in presence of NADPH regeneration system; type: ADME
Cytochrome P450 3A4, sequence (P08684 whole entry): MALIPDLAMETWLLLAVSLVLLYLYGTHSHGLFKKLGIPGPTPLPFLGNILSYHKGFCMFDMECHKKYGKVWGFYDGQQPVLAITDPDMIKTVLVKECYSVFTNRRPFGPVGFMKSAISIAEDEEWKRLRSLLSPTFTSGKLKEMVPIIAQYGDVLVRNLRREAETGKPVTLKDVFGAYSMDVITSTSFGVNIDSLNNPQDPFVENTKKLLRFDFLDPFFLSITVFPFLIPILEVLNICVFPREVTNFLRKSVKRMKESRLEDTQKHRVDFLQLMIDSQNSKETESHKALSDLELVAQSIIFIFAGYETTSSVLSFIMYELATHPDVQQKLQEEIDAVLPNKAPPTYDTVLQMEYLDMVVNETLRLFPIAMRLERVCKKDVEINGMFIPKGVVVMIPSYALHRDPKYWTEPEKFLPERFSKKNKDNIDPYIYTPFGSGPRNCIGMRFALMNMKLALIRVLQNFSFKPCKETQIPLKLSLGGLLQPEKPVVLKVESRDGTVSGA

Substance-K receptor [22] = target: T3, Substance-K receptor; assay: Displacement of [125I]NKA from human NK2R expressed in CHO cell membranes after 90 mins by scintillation counting analysis

| SMILES | fraction unbound at 4 h, 5 µM [1] | IC50 (Cytochrome P450 2C19) [µM] | logD [2] | Papp A→B [3] [×10⁻⁶ cm/s] | fAUC (Rattus norvegicus [4]) [µM·min] | inhibition [5] [%] | Tmax (in vivo [6]) [h] | fAUC (Rattus norvegicus [7]) [µM·min] | IC50 (Cytochrome P450 2C9) [µM] | Ki (Neuromedin-K receptor [8]) [µM] | Kp uu at 10 min [9] | IC50 (Cytochrome P450 2D6) [µM] | Kp uu at 1 h [10] | bioavailability (in vivo [11]) [%] | clearance [12] [mL/min/kg] | Ki (NK-3 receptor) [µM] | Vd (in vivo [13]) [L/kg] | Papp B→A [14] [×10⁻⁶ cm/s] | solubility thermodynamic [15] [µM] | half-life (in vivo [16]) [h] | further results |
| --- | --- | --- | --- | --- | --- | --- | --- | --- | --- | --- | --- | --- | --- | --- | --- | --- | --- | --- | --- | --- | --- |
| CC(C)c1nc(-c2nnc3n2CCN(C(=O)c2ccc(-c4cccs4)cc2)[C@@H]3C)co1 | 0.036 | 22 | 3.3 | 46.4 | 9.3 | 41 | 1.13 | 13.6 | 14 | 0.032 | 0.2 | 65 | 0.2 | 49 | 8.2 | 0.00631 | 2.6 | 43.8 | 119 (≈ 51.6 µg/mL) | 3.5 | Ki (Substance-K receptor [17]): 10 µM; fraction unbound at 4 h, 5 µM [18]: 0.016; Ki (Substance-P receptor): 7.94 µM; IC50 (Neuromedin-K receptor [19]): 0.00398 µM; IC50 (Cytochrome P450 1A2): 81 µM; Ki (Neuromedin-K receptor [20]): 0.00316 µM; fCmax (Rattus norvegicus [21]): 58.7 nM; IC50 (Cytochrome P450 3A4): 43 µM |
| Cc1noc(-c2nnc3n2CCN(C(=O)c2ccc(-c4cccs4)cc2)[C@@H]3C)n1 | 0.108 | 54 | 2.2 | 57.4 | 23.3 | 23 | 0.583 | 46.3 | 40 | 0.116 | 0.6 | > 100 | 0.4 | 66 | 11.3 | 0.0251 | 1 | 60.4 | 185 (≈ 75.2 µg/mL) | 1.03 | fraction unbound at 4 h, 5 µM [18]: 0.084; IC50 (Neuromedin-K receptor [19]): 0.0251 µM; IC50 (Cytochrome P450 1A2): 32 µM; Ki (Neuromedin-K receptor [20]): 0.0251 µM; fCmax (Rattus norvegicus [21]): 272 nM; IC50 (Cytochrome P450 3A4): 55 µM |
| CSCC[C@H](NC(=O)[C@H](CC(C)C)NC(=O)CNC(=O)[C@@H](NC(=O)[C@H](Cc1ccccc1)NC(=O)[C@H](Cc1ccccc1)NC(=O)[C@H](CC(=O)O)NC(=O)[C@H](Cc1c[nH]cn1)NC(=O)[C@H](CCSC)NC(=O)[C@@H](N)CC(=O)O)C(C)C)C(N)=O [NEUROKININ B] | – | – | – | – | – | – | – | – | – | – | – | – | – | – | – | – | – | – | – | – | Ki (Substance-K receptor [22]): 0.0158 µM |
| CSCC[C@H](NC(=O)[C@H](CC(C)C)NC(=O)CNC(=O)[C@H](Cc1ccccc1)N(C)C(=O)[C@H](Cc1ccccc1)NC(=O)[C@H](CC(=O)O)NC(=O)CCC(=O)O)C(N)=O [SENKTIDE] | – | – | – | – | – | – | – | – | – | – | – | – | – | – | – | – | – | – | – | – | Ki (Substance-K receptor [22]): > 10 µM |
